Test results as given in paper PMC3974779, “Pterostilbene-Isothiocyanate Conjugate Suppresses Growth of Prostate Cancer Cells Irrespective of Androgen Receptor Status” (PLoS ONE, 2014).

Assays:
LNCaP cells = test: Annexin-V/PI apoptosis assay by flow cytometry; assay type: cell-based, human; conditions: 24 h
Procedure: (§1) Cell cycle distribution and Annexin V/Propidium iodide (PI) positive cells were analyzed using flow cytometry. In brief, first the cells were seeded and treated with 0, 10, 20 and 40 μM conjugate in complete medium for 24 h. This was followed by trypsinizing and fixing in 70% ethanol, and finally washing with PBS. Subsequently, the cells were treated with RNase A (50 μg/ml), stained with PI (50 μg/ml) and incubated in the dark for 30 min at room temperature and analyzed by flow cytometry for cell cycle distribution. For apoptosis, the conjugate treated cells were stained with Alexa-Fluor 488-conjugated Annexin-V using the Vybrant-Apoptosis Assay Kit from Invitrogen (USA) as per the manufacturer’s protocol. The stained cells were then analyzed by fluorescence activated cell sorting (FACS Calibur, BD Biosciences, San Jose, CA, USA) and the data were standardized using Cell Quest 3.3 software.

PC-3 cells = test: Annexin-V/PI apoptosis assay by flow cytometry; assay type: cell-based, human; conditions: 24 h
Procedure: as §1

p-ERK in LNCaP cells = test: Immunoblot of ERK phosphorylation; assay type: cell-based, human; conditions: highest dose, 24 h
Procedure: The whole-cell lysates were prepared as described previously in immunoprecipitation (IP) buffer containing 50 mM Tris-HCl (pH 8.0), 150 mM NaCl, 5 mM EDTA, and 1% Triton X-100. Protein aliquots of 500 μg were then incubated overnight at 4°C using 2 μg of antibody directed against AR. The Protein A-Cl Agarose beads were then added and further incubated for 6 h at 4°C. The immunoprecipitates were washed four times with the IP buffer and the immunocomplexes were recovered by boiling in SDS sample buffer. Finally the western blot was carried out using anti-AR, anti-SRC-1 and anti-GRIP-1 antibodies (Santa Cruz, CA, USA). For western blot analysis, the cell lysates were prepared after harvesting them in lysis buffer. About 40 μg of total protein was electrophoresed by 12% SDS-PAGE, and the western blotting was carried out using standard protocol. In brief, the analyzed proteins were transferred to nylon membranes. The blots were then blocked with TBST buffer (20 mM Tris-Cl, pH 7.5, 150 mM sodium chloride, 0.05% Tween-20) containing 5% skim milk powder. They were then washed with TBST buffer and incubated overnight at 4°C with the same buffer containing appropriate amounts of primary antibodies: caspase-3, Bax, Bcl-2, Akt, p-Akt, ERK, p-ERK, AR, SRC-1, GRIP-1 (1∶500) and β-actin (1∶1000). […]

[1] = test system: cleaved caspase-3 in PC-3 cells; test: Akt/ERK siRNA silencing, cleaved caspase-3 immunoblot; assay type: cell-based, human
Procedure: The siRNAs against human Akt and ERK and control siRNA were purchased commercially from Santa Cruz Biotechnology (USA). The LNCaP and PC-3 PCa cells were transfected with siRNAs (at a final concentration of 100 nM) using polyfect transfection reagent (Qiagen, CA, USA) according to manufacturer’s instructions. After 24 h of transfection, the cells were washed properly and replaced with fresh medium. The cells were then treated with 20 μM conjugate for 24 h, and finally protein lysates were prepared on completion of treatment. The levels of p-Akt, p-ERK and cleaved caspase-3 expressions were detected by Western blot analysis.
Figure 5 Differential role of PI3K/Akt and MAPK/ERK pathways in conjugate induced apoptosis of prostate cancer cells. Effects of siRNA mediated silencing of Akt and ERK on conjugate-induced apoptosis of (A) PC-3 and (B) LNCaP cells. LNCaP and PC-3 PCa cells were transfected with siRNAs (at a final concentration of 100 nM) using polyfect transfection reagent. After 24 h of transfection the cells were treated with 20 μM conjugate and allowed to grow for another 24 h. The cell lysates were prepared and the level of p-Akt, p-ERK and cleaved caspase-3 proteins were detected by immunoblot analysis. The histogram on the right panel of each figure represents densitometric analyses of the image data and expressed as percent of control where the results are mean ± SEM of three independent experiments. *and # represents statistically significant difference with respect to control and 20 μM conjugate treated groups respectively at p<0.05.

[2] = molecular target: T1, AR nuclear localization in LNCaP cells (Homo sapiens, UniProt P10275); test: GFP-AR nuclear localization; assay type: cell-based; conditions: 10 and 20 μM with 10 nM DHT
T1 construct: expressed in transfected cells; host or cells: LNCaP and PC-3
Procedure: (§2) For localization studies, pEGFP-AR plasmid was transfected to LNCaP and PC-3 cells (300 ng/10^5 cells).

[3] = molecular target: T2, AR nuclear localization in PC-3 cells (Homo sapiens, UniProt P10275); test: GFP-AR nuclear localization; assay type: cell-based; conditions: PC-3, 10 and 20 μM with 10 nM DHT
T2 construct: expressed in transfected cells; host or cells: LNCaP and PC-3
Procedure: as §2

T2 sequence (P10275 whole entry): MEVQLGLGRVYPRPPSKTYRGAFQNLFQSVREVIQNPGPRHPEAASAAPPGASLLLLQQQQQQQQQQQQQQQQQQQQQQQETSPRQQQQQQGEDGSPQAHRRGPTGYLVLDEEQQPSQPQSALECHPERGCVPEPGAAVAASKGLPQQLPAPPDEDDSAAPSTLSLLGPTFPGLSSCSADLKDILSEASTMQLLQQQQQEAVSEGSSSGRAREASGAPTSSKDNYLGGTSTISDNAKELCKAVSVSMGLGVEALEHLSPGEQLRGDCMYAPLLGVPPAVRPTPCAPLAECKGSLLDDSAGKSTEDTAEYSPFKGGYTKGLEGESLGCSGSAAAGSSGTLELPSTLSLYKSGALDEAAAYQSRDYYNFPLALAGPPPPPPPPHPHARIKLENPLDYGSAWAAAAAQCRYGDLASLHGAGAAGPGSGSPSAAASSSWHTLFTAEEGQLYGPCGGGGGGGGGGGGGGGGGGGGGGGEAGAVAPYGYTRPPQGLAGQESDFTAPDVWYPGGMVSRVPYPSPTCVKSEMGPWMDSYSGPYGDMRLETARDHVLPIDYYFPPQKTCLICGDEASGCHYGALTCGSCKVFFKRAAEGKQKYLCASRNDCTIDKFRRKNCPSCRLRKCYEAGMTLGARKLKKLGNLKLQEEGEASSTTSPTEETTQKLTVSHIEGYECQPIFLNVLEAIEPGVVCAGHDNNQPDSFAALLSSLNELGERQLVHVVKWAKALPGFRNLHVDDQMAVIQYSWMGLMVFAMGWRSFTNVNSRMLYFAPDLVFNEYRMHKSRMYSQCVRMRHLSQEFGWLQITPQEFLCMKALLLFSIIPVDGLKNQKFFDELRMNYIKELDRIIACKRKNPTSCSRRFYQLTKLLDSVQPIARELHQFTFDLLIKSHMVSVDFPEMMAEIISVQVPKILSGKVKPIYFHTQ
T1 sequence (P10275 whole entry): as above

- DHT induced nuclear localization of AR [2]: significantly inhibited
- DHT induced nuclear localization of AR [3]: significantly inhibited
SMILES: COc1cc(/C=C/c2ccc(O)c(/C=N/NC(N)=S)c2)cc(OC)c1 [conjugate, Pterostilbene-isothiocyanate conjugate]
- early apoptotic cells (Annexin V positive only, lower right quadrant) (LNCaP cells; 20 μM): 52%
- late apoptotic cells (Annexin V and PI positive, upper right quadrant) (LNCaP cells; 20 μM): 8%
- late apoptotic cells (Annexin V and PI positive, upper right quadrant) (LNCaP cells; 40 μM): 18.5%
- early apoptotic cells (Annexin V positive only, lower right quadrant) (PC-3 cells; PC-3, 20 μM): about 44%
- late apoptotic cells (Annexin V and PI positive, upper right quadrant) (PC-3 cells; PC-3, 20 μM): 12%
- early apoptotic cells (Annexin V positive only, lower right quadrant) (PC-3 cells; PC-3, 40 μM): ~68%
- late apoptotic cells (Annexin V and PI positive, upper right quadrant) (PC-3 cells; PC-3, 40 μM): 16%
- inhibition of p-ERK (p-ERK in LNCaP cells): almost completely inhibited
- increase in cleaved caspase-3 protein expression vs control ([1]; PC-3, 20 μM conjugate alone, 24 h): 3.7 folds
- increase in cleaved caspase-3 protein expression vs control ([1]; PC-3, 20 μM conjugate in presence of Akt siRNA): 4.8 folds
- increase in expression of caspase-3 vs control ([1]; PC-3, 20 μM conjugate in presence of ERK siRNA): 3.9 folds
